The inhibition is the relative decrease from the control value, in per cent.

Active and inactive are the calls of the source.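 The calls were made as follows: active = over 50% inhibition of PKC substrate or ERK kinase phosphorylation; inactive = the rest.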

The test concerns TALL-104 cells, PKC substrate phosphorylation, flow cytometry. Kind of test: blockers of stimulated PKC activity in TALL-104 – TALL-104 cells, flow cytometry, CherryPick01, mechanism study for lytic granule exocytosis inhibitor project, late-stage follow-up (AID 720666). The note with it: at 30 µM; stronger effect = higher value. Background: A flow cytometer gives signals particle by particle.
Consider `Cc1cc(N2CCN(c3nc(-c4ccc([N+](=O)[O-])cc4)cs3)CC2)c2ccccc2n1`, for which the inhibition was -81.1% (inactive). As to `O=CNc1cc(-c2ccsc2)cn2c(-c3ccccc3)cnc12`, the inhibition is -35.4% (inactive). Next, `COc1ccc(N2C(=O)CC(Sc3nnc(-c4ccccc4)o3)C2=O)cc1` (configuration not stated): 1.3% (inactive); `N#Cc1c(Nc2ccccc2Cl)s[nH]c1=O`: -74.8% (inactive); `COc1ccc(-c2cc(NC=O)c3ncc(-c4cccc(OC)c4)n3c2)cc1`: -43.6% (inactive).

Turning to `O=C1CC(Sc2nnnn2-c2ccccc2)C(=O)N1c1cccc(Cl)c1` (configuration not stated), the inhibition is -30.8% (inactive). For the molecule `CC1COCC(C)N1C1=C(Cl)C(=O)c2ccccc2C1=O` (configuration not stated), the inhibition is -212% (inactive).

Regarding `CCCCC[C@@H](C)N1C[C@H](COCc2ccccc2)Oc2cc(N3CC[C@@H](N(C)C)C3)ccc2S1(=O)=O`, the inhibition was -58.8% (inactive).

Take `CC1=C(C)CS(=O)N(S(=O)(=O)c2ccc(Cl)cc2)C1` (configuration not stated): the inhibition is -41.1% (inactive). For `CC(C)(c1ccccc1)c1ccc(OCC(O)CNC2CCN(Cc3ccccc3)CC2)cc1` (configuration not stated) the value was -98.8% (inactive); for `COc1ccc(-n2sc3ccccc3c2=O)cc1`, 0% (inactive). On to `O=c1c2ccc(F)cc2sn1-c1ccccc1`, for which the inhibition was -40.1% (inactive). Next, `CCCCC[C@@H](C)N1C[C@@H](COCc2ccccc2)Oc2cc(N3CC[C@H](N(C)C)C3)ccc2S1(=O)=O`: -45.9% (inactive). For `O=c1c2ccccc2sn1-c1ccccc1` the value was -24.9% (inactive); for `COc1ccc(-c2cc(NC=O)c3ncc(-c4ccccc4)n3c2)cc1OC`, -38.6% (inactive). On to `CCN(CC)CCCNc1ccc(-c2nnc(-c3ccc(OCC(C)C)cc3)o2)cn1`, for which the inhibition was -94.2% (inactive). For `COC(=O)c1c(NC(=O)c2nc3ccccc3s2)sc2c1CC(C)(C)NC2(C)C` the value was -30.7% (inactive); for `Cc1ccc(Nc2nc(NCc3ccco3)c3ccccc3n2)cc1`, -25.2% (inactive); for `O=C(CN1C(=O)/C(=C\c2cccc(Br)c2)Oc2ccccc21)NCCCN1CCOCC1`, 6.3% (inactive). For `O=C(Cn1sc2ccccc2c1=O)NC12CC3CC(CC(C3)C1)C2` the value was -7.9% (inactive). Next, `CC1=NOC(=O)/C1=C/c1ccc(-c2ccc(Cl)cc2)o1`: -44% (inactive); `O=C(Cn1sc2ccccc2c1=O)Nc1ccc(F)cc1`: -10.3% (inactive). For `CCCCC[C@@H](C)N1C[C@@H](COCc2ccccc2)Oc2cc(N3CC[C@@H](N(C)C)C3)ccc2S1(=O)=O`, the inhibition is -3.7% (inactive). For `Cc1ccc(S(=O)(=O)n2ccc3c(OCCOCCNCc4ccc(F)cc4)cccc32)cc1` the value was -25.9% (inactive); for `CN(C)CCNC(=O)c1ccc(-c2cn3c(-c4ccc(Oc5ccccc5)cc4)cnc3cn2)cc1`, 5.3% (inactive); for `CCOC(=O)c1c(NC(=O)COc2ccccc2OCC)sc2c1CC(C)(C)NC2(C)C`, -9.9% (inactive). For `COc1ccccc1CNc1nc(NCc2ccc(C(C)C)cc2)c2sccc2n1` the value was -50.7% (inactive).

Source of the values: PubChem BioAssay AID720666 (NMMLSC, 2013).
